Test results published in the OligoGym collection.
Values joined by “and” are separate entries in the source; they are usually repeats but may differ in a detail not shown here. Identical values can stand only once. After the bases stand the sugars from the 5' end (letter, count) and the backbone: PS all phosphorothioate, else s phosphorothioate and o phosphodiester by linkage. Methylation of C is not given here. e = 2'-O-(2-methoxyethyl) (MOE); k = constrained ethyl (cEt); d = 2'-deoxy (DNA); m = 2'-O-methyl

What was measured:
[1] = target: IRF4; details: ASO
[2] = target: HSD17B13; details: ASO, HepaRG

Sequence | target mRNA inhibition ([1]; SK-MEL-28, 4 µM) [%] | target mRNA inhibition ([2]; 1 µM) [%] | further results
TCTATAGTGTTCCAGG (sugars k3 d10 k3, PS) | 80 |  | 
GAGCTTTCTTTGCCTC (sugars k3 d10 k3, PS) | 13 |  | 
GGTGTGTAAGGTCTGA (sugars k3 d10 k3, PS) | 41 |  | 
GATAAGAAGCACTGGC (sugars k3 d10 k3, PS) | 63 |  | 
TCCCACGCGGGAGGCT (sugars k3 d10 k3, PS) | 1 |  | 
GGCCTTGGAGCCCAAA (sugars k3 d10 k3, PS) | 20 |  | 
CTGATCGCTGGACAGC (sugars k3 d10 k3, PS) | 20 |  | 
GCAGTGATGTCAGGTT (sugars e1 k2 d9 k2 e2, PS) |  |  | target mRNA inhibition ([1]; MM.1R, 0.074 µM): 15%; target mRNA inhibition ([1]; MM.1R, 0.222 µM): 33%; target mRNA inhibition ([1]; MM.1R, 0.666 µM): 52%; target mRNA inhibition ([1]; MM.1R, 1 µM): 56%; target mRNA inhibition ([1]; MM.1R, 2 µM): 75%
GAGGGTCTGGAAACTC (sugars k3 d10 k3, PS) | -4 |  | 
TCAGCTCCACTGTTAA (sugars k3 d10 k3, PS) | 73 |  | 
CCTTACCTCGCCCTGG (sugars k3 d10 k3, PS) |  |  | target mRNA inhibition ([1]; MM.1R, 1 µM): -31%
AATCAGATGTCACTGA (sugars k3 d10 k3, PS) | 3 |  | 
GAGGTTCGCTGAATTG (sugars k3 d10 k3, PS) | 30 |  | 
AAGTTCATGTAAAGTC (sugars kdddddddddkekeke, PS) |  |  | target mRNA inhibition ([1]; MM.1R, 1 µM): 14% and 21%
CTTGCCAGTGGTGGCC (sugars k4 d8 k4, PS) | -9 |  | 
GGCTCATGGACATCTG (sugars k3 d10 k3, PS) | 36 |  | 
ATGGCGGATAGATCTG (sugars k3 d10 k3, PS) | 57 |  | 
TGTGTATTACTCTTAG (sugars kddddddddddkekek, PS) |  |  | target mRNA inhibition ([1]; MM.1R, 1 µM): 58% and 56%
ACGAAGATTCAAAAGG (sugars k3 d10 k3, PS) | 36 |  | 
CTCTGCTCTGCACTCG (sugars k3 d10 k3, PS) | 41 |  | 
TGCTTGAGGTTTTCCT (sugars kdddddddddkekeke, PS) |  |  | target mRNA inhibition ([1]; MM.1R, 1 µM): 9%
CATTTTATCATCCGAA (sugars k3 d10 k3, PS) | 55 |  | 
AGCCCAAAGTTACATC (sugars k3 d10 k3, PS) | 42 |  | 
CAGTTGTAAATGAGTC (sugars e1 k2 d9 k2 e2, PS) |  |  | target mRNA inhibition ([1]; MM.1R, 0.074 µM): 12%; target mRNA inhibition ([1]; MM.1R, 0.222 µM): 34%; target mRNA inhibition ([1]; MM.1R, 0.666 µM): 51%; target mRNA inhibition ([1]; MM.1R, 1 µM): 55%; target mRNA inhibition ([1]; MM.1R, 2 µM): 70%

Sequence | target mRNA inhibition ([1]; SK-MEL-28, 4 µM) [%] | target mRNA inhibition ([2]; 1 µM) [%] | further results
ACCTCAGTTTGTGAAG (sugars k3 d10 k3, PS) | 39 |  | 
TTTCATAGCTAGTTCA (sugars k3 d10 k3, PS) | 56 |  | 
TGTGAACATCTCAGAT (sugars k3 d10 k3, PS) | 12 |  | 
AATCACGAGGTTGCCG (sugars k3 d10 k3, PS) |  |  | target mRNA inhibition ([1]; MM.1R, 1 µM): -6%
TGCGGCTCCGGCGACG (sugars k3 d10 k3, PS) |  |  | target mRNA inhibition ([1]; MM.1R, 1 µM): -20%
CCCTTCAGCCACGAGG (sugars k3 d10 k3, PS) | 8 |  | 
CAGTTTGTGAAGCATC (sugars k3 d10 k3, PS) | 78 |  | 
CTACTCTTCAGGCACC (sugars k3 d10 k3, PS) |  |  | target mRNA inhibition ([1]; MM.1R, 1 µM): 18%
TCAGTTTGTGAAGCAT (sugars k2 d9 e3 k2, PS) |  |  | target mRNA inhibition ([1]; MM.1R, 1 µM): 39%
AAGTTCATGTAAAGTC (sugars kkdddddddddkekek, PS) |  |  | target mRNA inhibition ([1]; MM.1R, 1 µM): 34% and 27%
GAGTGTGCAGTTCCGT (sugars k3 d10 k3, PS) | 67 |  | 
TAGATTGTAGGACAGA (sugars k3 d10 k3, PS) | 28 |  | 
CTGTTAGCTACAAAGA (sugars k3 d10 k3, PS) | 56 |  | 
CCTCCTTTAGTGTCGC (sugars k3 d10 k3, PS) | 65 |  | 
AATGTAGGGATACAGC (sugars k3 d10 k3, PS) | 62 |  | 
CTGAAAGCGAGTCAGA (sugars k3 d10 k3, PS) |  |  | target mRNA inhibition ([1]; MM.1R, 1 µM): 6%
CTGTAACTGACTAACA (sugars k3 d10 k3, PS) | 23 |  | 
CTTGATAAAGGCTGAA (sugars k3 d9 k3 e1, PS) |  |  | target mRNA inhibition ([1]; MM.1R, 1 µM): 36%
TTGGTTGGCTGGTCTT (sugars kkdddddddddekeke, PS) |  |  | target mRNA inhibition ([1]; MM.1R, 1 µM): 34%
CTGCATCAAATCAAGT (sugars k3 d10 k3, PS) | 47 |  | 
TGAAATGGAGCATCCG (sugars k3 d10 k3, PS) | 9 |  | 
AAACACCTCAGCTGAC (sugars k3 d10 k3, PS) | 16 |  | 
GGGAATCCTTAATTAT (sugars k3 d10 k3, PS) | 12 |  | 
AGCCACTGGCGGAGCT (sugars k3 d10 k3, PS) | 38 |  | 

Sequence | target mRNA inhibition ([1]; SK-MEL-28, 4 µM) [%] | target mRNA inhibition ([2]; 1 µM) [%] | further results
AATGTGTATTACTCTT (sugars kkdddddddddekeke, PS) |  |  | target mRNA inhibition ([1]; MM.1R, 1 µM): 24% and 30%
TGAGCACTCTTACTCC (sugars k3 d10 k3, PS) |  |  | target mRNA inhibition ([1]; MM.1R, 1 µM): -6%
GCCCAGCAAGAGGCAC (sugars k3 d10 k3, PS) | 7 |  | 
GGCTGATAATTAATCT (sugars k3 d10 k3, PS) | 47 |  | 
ACTGTATGGAACCCCA (sugars k3 d10 k3, PS) |  |  | target mRNA inhibition ([1]; MM.1R, 1 µM): 30%
CCACGAAGATTCAAAA (sugars k3 d10 k3, PS) |  |  | target mRNA inhibition ([1]; MM.1R, 1 µM): -7%
GCGCATAGGTCCTTCA (sugars k3 d10 k3, PS) | 63 |  | 
GACTCCGGGAGCCTGG (sugars k3 d10 k3, PS) | 65 |  | 
CTGTAGGATTTTACAT (sugars k3 d10 k3, PS) | 24 |  | 
TTGGACAGAAGGGCAA (sugars k3 d10 k3, PS) | 29 |  | 
GTCAACATACACATAG (sugars k3 d10 k3, PS) | 58 |  | 
CGAGCGGTGAAACTGA (sugars k3 d10 k3, PS) | 33 |  | 
TCGCGCAAAGGGCAAG (sugars k3 d10 k3, PS) |  |  | target mRNA inhibition ([1]; MM.1R, 1 µM): -4%
GCACGGACGAACGCGC (sugars k3 d10 k3, PS) | 23 |  | 
GAAGGATTTCTAGGAT (sugars k3 d10 k3, PS) |  | 71 | target mRNA inhibition ([2]; 0.02 µM): 0%; target mRNA inhibition ([2]; 0.078 µM): 0%; target mRNA inhibition ([2]; 0.313 µM): 24%; target mRNA inhibition ([2]; 1.25 µM): 61%; target mRNA inhibition ([2]; 5 µM): 88%
ACCAATCCTCAGCTTT (sugars k3 d10 k3, PS) |  | 11 | 
TCTAGGATGATGTTCA (sugars k3 d10 k3, PS) |  | 64 | 
GAAGTTAGTATAGTTA (sugars k3 d9 k3 e1, PS) |  | 75 | 
AGACTTTGAGACTCTT (sugars k3 d9 k3 e1, PS) |  | 41 | 
TTACAGCCTTAGAGTG (sugars k3 d10 k3, PS) |  | 21 | 
AAAAUAGAGTCGGTCA (sugars k3 d1 m1 d8 k3, PS) |  | 62 | 
CTTGGGTCCATTGTTT (sugars k3 d10 k3, PS) |  | 44 | 
CTGATTTAGTTGGTAG (sugars k3 d10 k3, PS) |  | 78 | target mRNA inhibition ([2]; 0.02 µM): 0%; target mRNA inhibition ([2]; 0.078 µM): 0%; target mRNA inhibition ([2]; 0.313 µM): 41%; target mRNA inhibition ([2]; 1.25 µM): 70%; target mRNA inhibition ([2]; 5 µM): 88%
GTATCTTATAAGACTA (sugars k3 d10 k3, PS) |  | 81 | target mRNA inhibition ([2]; 0.02 µM): 50%; target mRNA inhibition ([2]; 0.078 µM): 61%; target mRNA inhibition ([2]; 0.313 µM): 68%; target mRNA inhibition ([2]; 1.25 µM): 87%; target mRNA inhibition ([2]; 5 µM): 95%

Sequence | target mRNA inhibition ([1]; SK-MEL-28, 4 µM) [%] | target mRNA inhibition ([2]; 1 µM) [%] | further results
CCTTATGATAATTTGG (sugars k3 d10 k3, PS) |  | 29 | 
GTTCUTGTTGATATTC (sugars k3 d1 m1 d8 k3, PS) |  | 70 | 
TAGAATAGTCTTCAGC (sugars kkdddddddddkekek, PS) |  | 50 | 
GACAGGTAATTAATCT (sugars k3 d10 k3, PS) |  | 60 | 
AGCTGTGCACTCATTC (sugars k3 d10 k3, PS) |  | 57 | 
TCGGTCACCTTTCATA (sugars k3 d9 k3 e1, PS) |  | 72 | 
TTGCAGTTATTAGAAG (sugars k3 d1 m1 d8 k3, PS) |  | 17 | 
AGTTTTTAAGAGGCAT (sugars k3 d10 k3, PS) |  | 75 | 
CTCAAAGCCTGTTGGA (sugars k3 d10 k3, PS) |  | 10 | 
TAGTCCATGCAAAAGC (sugars k3 d10 k3, PS) |  | 66 | 
TAGTGAACATACATTG (sugars k3 d10 k3, PS) |  | 23 | 
TTAAGCAGATGGCTTA (sugars k3 d10 k3, PS) |  | 0 | 
TAAAGGTTTCTGTTGC (sugars k3 d10 k3, PS) |  | 66 | target mRNA inhibition ([2]; 0.02 µM): 0%; target mRNA inhibition ([2]; 0.078 µM): 9%; target mRNA inhibition ([2]; 0.313 µM): 32%; target mRNA inhibition ([2]; 1.25 µM): 67%; target mRNA inhibition ([2]; 5 µM): 74%
AGACCAAGTAGCTTAC (sugars k3 d10 k3, PS) |  | 42 | 
TAGTTAGAATAGTCTT (sugars k3 d10 k3, PS) |  | 23 | 
CAATTGCTCTATAGAT (sugars k3 d10 k3, PS) |  | 15 | 
AACTACTTCAGTTAGC (sugars k3 d10 k3, PS) |  | 53 | 
ATCAAATGTATGTGCT (sugars k3 d10 k3, PS) |  | 73 | 
GTCACCTTTCATAATG (sugars k3 d10 k3, PS) |  | 45 | 
TATTAGAAGTCAGCCC (sugars k3 d9 k3 e1, PS) |  | 32 | 
GTTCTTGTTGATATTC (sugars k3 d10 k3, PS) |  | 84 | target mRNA inhibition ([2]; 0.02 µM): 35%; target mRNA inhibition ([2]; 0.078 µM): 51%; target mRNA inhibition ([2]; 0.313 µM): 77%; target mRNA inhibition ([2]; 1.25 µM): 92%; target mRNA inhibition ([2]; 5 µM): 96%
GTATCTTATAAGACTA (sugars k3 d1 m1 d8 k3, PS) |  | 79 | target mRNA inhibition ([2]; 0.02 µM): 13%; target mRNA inhibition ([2]; 0.078 µM): 26%; target mRNA inhibition ([2]; 0.313 µM): 39%; target mRNA inhibition ([2]; 1.25 µM): 66%; target mRNA inhibition ([2]; 5 µM): 84%
TGTTAGCTAAGGGAGA (sugars k3 d10 k3, PS) |  | 0 | 
